Measurements taken from ChEMBL document CHEMBL4602735, “Discovery of (1H-Pyrazolo[3,4-c]pyridin-5-yl)sulfonamide Analogues as Hepatitis B Virus Capsid Assembly Modulators by Conformation Constraint” (J Med Chem, 2020).

Key:
Hepatitis B virus = assay: Antiviral activity against HBV infected in human HepAD38 cells assessed as reduction in viral DNA levels incubated for 6 days by PCR analysis; type: functional, organism-based; details: HePAD38, 144 h
[1] = Selectivity index, ratio of CC50 for cytotoxicity in human HepAD38 cells assessed as induction of cell killing to EC50 for antiviral activity against HBV infected in human HepAD38 cells assessed as reduction in viral DNA levels incubated for 6 days by PCR analysis; type: toxicity, cell-based; details: read-out: Ratio CC50/EC50
[2] = Cytotoxicity in human HepAD38 cells assessed as induction of cell killing; type: cell-based

| Compound | EC50 (Hepatitis B virus) | selectivity ratio at 144 h [1] | CC50 [2] |
| --- | --- | --- | --- |
| CC(C)n1nc(Nc2ccc(F)cc2)c2cc(S(=O)(=O)N3CCC(O)CC3)ccc21 | > 10 µM | – | – |
| O=S(=O)(c1cc2c(Nc3cc(F)c(F)c(F)c3)nn(C3CC3)c2cc1F)N1CCC(O)CC1 | 0.13 µM | > 769 | > 100 µM |
| O=S(=O)(c1ccc2c(c1)c(Nc1ccc(F)cc1)nn2C1CC1)N1CCC(CO)CC1 | 1.1 µM | 23 | 24.8 µM |
| Cc1cc(F)ccc1Nc1nn(C2CC2)c2ccc(S(=O)(=O)N3CCC(O)CC3)cc12 | 1.15 µM | > 87 | > 100 µM |
| O=S(=O)(c1ccc2c(c1)c(Nc1ccc(F)c(F)c1)nn2C1CC1)N1CCOCC1 | 0.22 µM | > 454 | > 100 µM |
| O=S(=O)(c1ccc2c(c1)c(Nc1ccc(F)cc1)nn2C1CC1)N1CCOCC1 | 0.43 µM | > 232 | > 100 µM |
| O=S(=O)(c1ccc2c(c1)c(Nc1ccc(F)c(Cl)c1)nn2C1CC1)N1CCC(O)CC1 | 0.19 µM | 96 | 18.3 µM |
| O=S(=O)(c1ccc2c(c1)c(Nc1ccc(Cl)cc1)nn2C1CC1)N1CCC(O)CC1 | 3.14 µM | 2.2 | 6.9 µM |
| O=S(=O)(c1cc2c(Nc3ccc(F)c(F)c3)nn(C3CC3)c2cn1)N1CCOCC1 | 0.22 µM | > 454 | > 100 µM |
| O=S(=O)(c1ccc2c(c1)c(NC1CCCCC1)nn2C1CC1)N1CCC(O)CC1 | > 10 µM | < 10 | 100 µM |
| O=S(=O)(c1ccc2c(c1)c(Nc1ccc(F)c(C(F)(F)F)c1)nn2C1CC1)N1CCOCC1 | 0.29 µM | 29 | 8.42 µM |
| O=S(=O)(c1ccc2c(c1)c(NC1CCCC1)nn2C1CC1)N1CCC(O)CC1 | > 10 µM | – | > 100 µM |
| O=S(=O)(c1ccc2c(c1)c(Nc1ccc(F)cn1)nn2C1CC1)N1CCC(O)CC1 | > 10 µM | – | – |
| O=S(=O)(c1ccc2c(c1)c(NCc1ccc(F)cc1)nn2C1CC1)N1CCC(O)CC1 | > 10 µM | – | – |
| O=S(=O)(c1cc2c(Nc3ccc(F)c(F)c3)nn(C3CC3)c2cn1)N1CCC(O)CC1 | 0.25 µM | > 400 | > 100 µM |
| O=S(=O)(c1ccc2c(c1)c(Oc1ccc(F)c(Cl)c1)nn2C1CC1)N1CCC(O)CC1 | > 10 µM | < 7.5 | 75 µM |
| O=S(=O)(c1cc2c(Nc3ccc(F)c(C(F)(F)F)c3)nn(C3CC3)c2cn1)N1CCOCC1 | 0.34 µM | > 294 | > 100 µM |
| O=S(=O)(c1ccc2c(c1)c(Nc1ccccc1)nn2C1CC1)N1CCC(O)CC1 | 0.74 µM | 44 | 32.2 µM |
| O=C(O)C1CCN(S(=O)(=O)c2ccc3c(c2)c(Nc2ccc(F)cc2)nn3C2CC2)C1 (stereo unspecified) | > 10 µM | – | > 100 µM |
| Cc1cc(Nc2nn(CC(F)F)c3ccc(S(=O)(=O)N4CCOCC4)cc23)ccc1F | 0.23 µM | > 435 | > 100 µM |
| O=S(=O)(c1ccc2c(n1)c(Nc1cc(F)c(F)c(F)c1)nn2C1CC1)N1CCC(O)CC1 | > 5 µM | – | – |
| O=S(=O)(c1ccc2c(c1)c(Nc1ccc(F)cc1)nn2C1CC1)N1CCC2(CC1)OCCO2 | 0.25 µM | > 400 | > 100 µM |
| Cc1ccc(Nc2nn(C3CC3)c3ccc(S(=O)(=O)N4CCC(O)CC4)cc23)cc1 | 0.22 to 5 µM | – | – |
| O=S(=O)(c1ccc2c(c1)c(Nc1ccc(F)cc1)nn2C1CC1)N1CCC(O)C1 (stereo unspecified) | 2.1 µM | 28 | 60 µM |
| CN(c1ccc(F)c(Cl)c1)c1nn(C2CC2)c2ccc(S(=O)(=O)N3CCC(O)CC3)cc12 | > 10 µM | – | > 100 µM |

| Compound | EC50 (Hepatitis B virus) | selectivity ratio at 144 h [1] | CC50 [2] |
| --- | --- | --- | --- |
| O=S(=O)(c1ccc2c(c1)c(Nc1ccc(F)cc1)nn2C1CCC1)N1CCC(O)CC1 | 8 µM | 1.3 | 10.8 µM |
| O=S(=O)(c1ccc2c(c1)c(Nc1ccc(F)c(F)c1)nn2C1CC1)N1CCC(O)CC1 | 0.12 µM | 625 | 75 µM |
| O=S(=O)(c1ccc2c(c1)c(Nc1ccc(F)c(C(F)(F)F)c1)nn2C1CC1)N1CCC(O)CC1 | 6 µM | 1.3 | 7.52 µM |
| Cc1cc(Nc2nn(C3CC3)c3cc(F)c(S(=O)(=O)N4CCOCC4)cc23)ccc1F | 0.21 µM | – | > 100 µM |
| Cn1nc(Nc2ccc(F)c(Cl)c2)c2cc(S(=O)(=O)N3CCC(O)CC3)ccc21 | 1.38 µM | > 72 | > 100 µM |
| O=S(=O)(c1cc2c(Nc3cc(F)c(F)c(F)c3)nn(C3CC3)c2cn1)N1CCC(O)CC1 | 0.24 µM | > 417 | > 100 µM |
| O=S(=O)(c1cnc2c(c1)c(Nc1cc(F)c(F)c(F)c1)nn2C1CC1)N1CCC(O)CC1 | > 20 µM | – | – |
| O=S(=O)(c1ccc2c(c1)c(Nc1ccc(F)c(C(F)F)c1)nn2C1CC1)N1CCOCC1 | 0.12 µM | 417 | 50 µM |
| O=C1CCN(S(=O)(=O)c2ccc3c(c2)c(Nc2ccc(F)cc2)nn3C2CC2)CC1 | 0.33 µM | 43 | 14.2 µM |
| Cc1cc(Nc2nn(C3CC3)c3ccc(S(=O)(=O)N4CCC(O)CC4)cc23)ccc1F | 0.032 µM | 343 | 11 µM |
| O=S(=O)(c1ccc2c(c1)c(Nc1ccc(F)cc1)nn2C1CC1)N1CCC(O)CC1 | 0.22 µM | > 455 | > 100 µM |
| O=S(=O)(c1ccc2c(c1)c(NCc1ccccc1)nn2C1CC1)N1CCC(O)CC1 | > 10 µM | – | – |
| Cc1cc(Nc2nn(CCF)c3ccc(S(=O)(=O)N4CCOCC4)cc23)ccc1F | 0.41 µM | > 244 | > 100 µM |
| O=S(=O)(c1ccc2c(c(Nc3cc(F)c(F)c(F)c3)nn2C2CC2)c1F)N1CCC(O)CC1 | > 20 µM | – | > 100 µM |
| O=S(=O)(c1ccc2c(c1)c(Nc1ccc(F)cc1)nn2C1COC1)N1CCC(O)CC1 | > 10 µM | – | – |
| O=S(=O)(c1ccc2[nH]nc(Nc3ccc(F)c(Cl)c3)c2c1)N1CCC(O)CC1 | 1.28 µM | 18.8 | 24 µM |
| Cc1cc(Nc2nn(CC(F)(F)F)c3ccc(S(=O)(=O)N4CCOCC4)cc23)ccc1F | 0.24 µM | > 417 | > 100 µM |
| Cc1cc(Nc2n[nH]c3ccc(S(=O)(=O)N4CCOCC4)cc23)ccc1F | 0.29 µM | 172 | 50 µM |
| Cc1cc(Nc2nn(C3CC3)c3ccc(S(=O)(=O)N4CCC(O)CC4)cc23)ncc1F | > 10 µM | – | – |
| Cc1cc(Nc2nn(C3CC3)c3ccc(S(=O)(=O)N4C[C@@H]5C[C@H]4CO5)cc23)ccc1F | 0.045 µM | 422 | 19 µM |
| O=S(=O)(c1cc2c(Nc3ccc(F)c(C(F)F)c3)nn(C3CC3)c2cn1)N1CCOCC1 | 0.23 µM | > 435 | > 100 µM |
| CCn1nc(Nc2ccc(F)cc2)c2cc(S(=O)(=O)N3CCC(O)CC3)ccc21 | 1.26 µM | > 79 | > 100 µM |
| N#Cc1cc(Nc2nn(C3CC3)c3ccc(S(=O)(=O)N4CCC(O)CC4)cc23)ccc1F | > 10 µM | – | – |
| Cc1cc(Nc2nn(C(F)F)c3ccc(S(=O)(=O)N4CCOCC4)cc23)ccc1F | > 10 µM | – | > 100 µM |
